Reference: the supplement of paper PMC10307832

Compound: CN(NC(=O)CC(=O)NN(C)C(=S)c1ccccc1)C(=S)c1ccccc1 [Elesclomol]
Assay: relative viability (nuclei count vs DMSO), 5 days (fraction); higher = more cells survive
Outline: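 For viability, nuclei in each treated well were divided by nuclei in vehicle wells and the median across plates was taken. Lung cancer cell lines in 1536-well plates were pinned with five library-drug doses (not always all listed) spaced by √10, cultured 5 days without medium change, and imaged at 4× after Hoechst staining, with plates passing only at control CV below 25% and at least one doubling.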

Cell Line: 201T
- relative viability (0.003162 µM): 0.953
- relative viability (0.01 µM): 0.884
- relative viability (0.03162 µM): 0.86
- relative viability (0.1 µM): 0.61

Cell Line: A549
- relative viability (0.003162 µM): 0.912
- relative viability (0.01 µM): 0.417
- relative viability (0.03162 µM): 0.24
- relative viability (0.1 µM): 0.0637

Cell Line: A-427
- relative viability (0.003162 µM): 0.963
- relative viability (0.01 µM): 0.554
- relative viability (0.03162 µM): 0.529
- relative viability (0.1 µM): 0.18

Cell Line: ABC-1
- relative viability (0.003162 µM): 0.239
- relative viability (0.01 µM): 0.252
- relative viability (0.03162 µM): 0.201
- relative viability (0.1 µM): 0.328

Cell Line: BEN
- relative viability (0.003162 µM): 0.937
- relative viability (0.01 µM): 0.677
- relative viability (0.03162 µM): 0.344
- relative viability (0.1 µM): 0.307

Cell Line: CAL-12T
- relative viability (0.003162 µM): 0.939
- relative viability (0.01 µM): 0.442
- relative viability (0.03162 µM): 0.269
- relative viability (0.1 µM): 0.0778

Cell Line: COR-L23
- relative viability (0.003162 µM): 0.969
- relative viability (0.01 µM): 0.629
- relative viability (0.03162 µM): 0.461
- relative viability (0.1 µM): 0.256

Cell Line: COR-L 105
- relative viability (0.003162 µM): 0.85
- relative viability (0.01 µM): 0.472
- relative viability (0.03162 µM): 0.344
- relative viability (0.1 µM): 0.221

Cell Line: ChaGo-K-1
- relative viability (0.003162 µM): 0.947
- relative viability (0.01 µM): 0.952
- relative viability (0.03162 µM): 0.663
- relative viability (0.1 µM): 0.199

Cell Line: EKVX
- relative viability (0.003162 µM): 0.912
- relative viability (0.01 µM): 0.662
- relative viability (0.03162 µM): 0.379
- relative viability (0.1 µM): 0.203

Cell Line: EMC-BAC-2
- relative viability (0.003162 µM): 1.05
- relative viability (0.01 µM): 0.548
- relative viability (0.03162 µM): 0.602
- relative viability (0.1 µM): 0.557

Cell Line: EPLC-272H
- relative viability (0.003162 µM): 0.876
- relative viability (0.01 µM): 0.514
- relative viability (0.03162 µM): 0.534
- relative viability (0.1 µM): 0.128

Cell Line: H3255
- relative viability (0.003162 µM): 0.879
- relative viability (0.01 µM): 0.785
- relative viability (0.03162 µM): 0.566
- relative viability (0.1 µM): 0.442

Cell Line: HARA
- relative viability (0.003162 µM): 0.883
- relative viability (0.01 µM): 0.879
- relative viability (0.03162 µM): 0.919
- relative viability (0.1 µM): 0.293

Cell Line: HCC-15
- relative viability (0.003162 µM): 0.964
- relative viability (0.01 µM): 0.828
- relative viability (0.03162 µM): 0.626
- relative viability (0.1 µM): 0.231

Cell Line: HCC-44
- relative viability (0.003162 µM): 0.968
- relative viability (0.01 µM): 0.935
- relative viability (0.03162 µM): 0.831
- relative viability (0.1 µM): 0.764

Cell Line: HCC-78
- relative viability (0.003162 µM): 0.87
- relative viability (0.01 µM): 1
- relative viability (0.03162 µM): 0.861
- relative viability (0.1 µM): 0.926

Cell Line: HCC-366
- relative viability (0.003162 µM): 1.04
- relative viability (0.01 µM): 1.08
- relative viability (0.03162 µM): 0.924
- relative viability (0.1 µM): 0.202

Cell Line: HCC-827
- relative viability (0.003162 µM): 1.05
- relative viability (0.01 µM): 1.02
- relative viability (0.03162 µM): 1.02
- relative viability (0.1 µM): 1

Cell Line: HOP-62
- relative viability (0.003162 µM): 1.01
- relative viability (0.01 µM): 0.83
- relative viability (0.03162 µM): 0.89
- relative viability (0.1 µM): 0.299

Cell Line: LC-2-ad
- relative viability (0.003162 µM): 0.963
- relative viability (0.01 µM): 0.568
- relative viability (0.03162 µM): 0.241
- relative viability (0.1 µM): 0.19

Cell Line: LCLC-97TM1
- relative viability (0.003162 µM): 0.735
- relative viability (0.01 µM): 0.844
- relative viability (0.03162 µM): 0.738
- relative viability (0.1 µM): 0.0887

Cell Line: LCLC-103H
- relative viability (0.003162 µM): 1
- relative viability (0.01 µM): 0.856
- relative viability (0.03162 µM): 0.993
- relative viability (0.1 µM): 0.842

Cell Line: LK-2
- relative viability (0.003162 µM): 0.796
- relative viability (0.01 µM): 0.715
- relative viability (0.03162 µM): 0.507
- relative viability (0.1 µM): 0.157

Cell Line: LOU-NH91
- relative viability (0.003162 µM): 1.06
- relative viability (0.01 µM): 0.856
- relative viability (0.03162 µM): 0.798
- relative viability (0.1 µM): 0.764

Cell Line: LU99A
- relative viability (0.003162 µM): 0.919
- relative viability (0.01 µM): 0.811
- relative viability (0.03162 µM): 0.986
- relative viability (0.1 µM): 0.544

Cell Line: LXF-289
- relative viability (0.003162 µM): 1.03
- relative viability (0.01 µM): 0.956
- relative viability (0.03162 µM): 0.95
- relative viability (0.1 µM): 0.772

Cell Line: NCI-H23
- relative viability (0.003162 µM): 1
- relative viability (0.01 µM): 0.566
- relative viability (0.03162 µM): 0.786
- relative viability (0.1 µM): 0.128

Cell Line: NCI-H322M
- relative viability (0.003162 µM): 0.893
- relative viability (0.01 µM): 0.29
- relative viability (0.03162 µM): 0.363
- relative viability (0.1 µM): 0.266

Cell Line: NCI-H358
- relative viability (0.003162 µM): 0.752
- relative viability (0.01 µM): 0.225
- relative viability (0.03162 µM): 0.215
- relative viability (0.1 µM): 0.196

Cell Line: NCI-H441
- relative viability (0.003162 µM): 1.06
- relative viability (0.01 µM): 0.945
- relative viability (0.03162 µM): 0.55
- relative viability (0.1 µM): 0.179

Cell Line: NCI-H460
- relative viability (0.003162 µM): 1.01
- relative viability (0.01 µM): 0.825
- relative viability (0.03162 µM): 0.557
- relative viability (0.1 µM): 0.0845

Cell Line: NCI-H520
- relative viability (0.003162 µM): 1.03
- relative viability (0.01 µM): 0.87
- relative viability (0.03162 µM): 0.584
- relative viability (0.1 µM): 0.134

Cell Line: NCI-H522
- relative viability (0.003162 µM): 1.03
- relative viability (0.01 µM): 0.877
- relative viability (0.03162 µM): 0.801
- relative viability (0.1 µM): 0.53

Cell Line: NCI-H596
- relative viability (0.003162 µM): 0.983
- relative viability (0.01 µM): 0.842
- relative viability (0.03162 µM): 0.865
- relative viability (0.1 µM): 0.243

Cell Line: NCI-H647
- relative viability (0.003162 µM): 1
- relative viability (0.01 µM): 0.617
- relative viability (0.03162 µM): 0.377
- relative viability (0.1 µM): 0.062
